Results taken from patent publication US20020137929A1, “1 - (3-heterocyclylphenyl) isothiourea, -isourea, -guanidine and -amidine herbicidal agents” (Intellectual Property Department, BASF Aktiengesellschaft, priority 1998, published 2002).

Assays:
AMBEL (Ragweed, Common) = test: Postemergence herbicidal evaluation; format: in vivo, Ambrosia artemisifolia; settings: postemergence
Method in brief: (§1)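 Seedlings grown about two weeks were sprayed at 40 psi with compound dispersed in 50/50 acetone/water plus 0.5% TWEEN 20, at about 0.0156 to 0.500 kg/ha. Plants were kept in the greenhouse and scored 4–5 weeks later on a 0–9 visual scale against untreated controls.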

CASOB (Sicklepod) [1] = test: Postemergence herbicidal evaluation; format: in vivo, Cassia obtusifolia; settings: postemergence
Method in brief: as §1

[2] = system: CHEAL (Lambsquarters, Common); test: Postemergence herbicidal evaluation; format: in vivo, Chenopodium album; settings: postemergence
Method in brief: as §1

GALAP (Galium) [3] = test: Postemergence herbicidal evaluation; format: in vivo, Galium aparine; settings: postemergence
Method in brief: as §1

ECHCG (Barnyardgrass) = test: Postemergence herbicidal evaluation; format: in vivo, Echinochloa crus-galli; settings: postemergence
Method in brief: as §1

SETVI (Foxtail, Green) = test: Postemergence herbicidal evaluation; format: in vivo, Setaria viridis; settings: postemergence
Method in brief: as §1

[4] = system: GLXMAW (Soybean, Williams); test: Postemergence herbicidal evaluation; format: in vivo, Glycine max, (L.) Merr. cv Williams; settings: postemergence
Method in brief: as §1

ORYSAT (Rice, Tebonnet) = test: Postemergence herbicidal evaluation; format: in vivo, Oryza sativa, (L.) Tebonnet; settings: postemergence
Method in brief: as §1

CASOB (Sicklepod) [5] = test: Preemergence herbicidal evaluation; format: in vivo, Cassia obtusifolia; settings: rated 4-5 weeks after treatment
Method in brief: (§2)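 Seeds were planted in potting soil in cups, then sprayed preemergence with the test compound in aqueous acetone at about 0.0156 to 0.500 kg per hectare. Cups were kept under greenhouse conditions and visually rated 4–5 weeks after treatment on a 0–9 scale against an untreated control.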

GALAP (Galium) [6] = test: Preemergence herbicidal evaluation; format: in vivo, Galium aparine; settings: rated 4-5 weeks after treatment
Method in brief: as §2

ZEAMX (Corn, Field) = test: Preemergence herbicidal evaluation; format: in vivo, Zea mays; settings: rated 4-5 weeks after treatment
Method in brief: as §2

CYPIR (Rice Flatsedge) = test: Preemergence weed control under flooded paddy conditions; format: in vivo, Cyperus iria; settings: rated 3-4 weeks after treatment
Method in brief: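 Seeds or propagules sown in top 0.5 cm of silt loam soil, flooded 1.5 to 3 cm above surface throughout. Compound in 50/50 v/v aqueous/acetone pipetted into flood water at about 0.0313 to 0.500 kg/ha. Visual 0-9 rating versus control after three to four weeks in greenhouse.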

CYPSE (Flatsedge) [7] = test: as above; format: in vivo, Cyperus serotinus; settings: rated 3-4 weeks after treatment
Method in brief: (§3)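 Flooded-pot preemergence screen with silt loam and seeds in the upper 0.5 cm. Dose about 0.0313 to 0.500 kg/ha, delivered into flood water; visual 0-9 score after 3 to 4 weeks.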

[8] = system: SAGPY (Arrowhead (Pygmaea)); test: as above; format: in vivo, Sagittaria pygmaea; settings: rated 3-4 weeks after treatment
Method in brief: as §3

CYPSE (Flatsedge) [9] = test: Postemergence weed control under flooded paddy conditions; format: in vivo, Cyperus serotinus; settings: postemergence weeds, rated 3 to 4 weeks after treatment
Method in brief: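 Weeds 3 to 5 cm tall and rice seedlings at the 1.5 to 2.5 leaf stage were flooded, with water held 1.5 to 3 cm above the soil. Compounds in 50/50 v/v aqueous/acetone went into the flood water at about 0.0313 to 0.500 kg/ha. Visual 0-9 ratings versus control were made 3 to 4 weeks later.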

C=CCOC(=O)CC1SC(=Nc2cc(-n3c(=O)cc(C(F)(F)F)n(C)c3=O)c(F)cc2Cl)N(CC=C)C1=O (stereo not shown) [Compound 65, Allyl 3-allyl-2-{(2-chloro-5-[3,6-dihydro-3-methyl-2,6-dioxo-4-(trifluoromethyl)-1(2H)-pyrimidinyl]-4-fluorophenyl}imino}-4-oxo-5-thiazolidineacetate]
AMBEL herbicidal rating (AMBEL (Ragweed, Common); rate 0.0158 kg/ha): 9.0
AMBEL herbicidal rating (AMBEL (Ragweed, Common); rate 0.0315 kg/ha): 7.0
AMBEL herbicidal rating (AMBEL (Ragweed, Common); rate 0.0630 kg/ha): 9.0
CASOB herbicidal rating (CASOB (Sicklepod) [1]; rate 0.0158 kg/ha): 0.0
CASOB herbicidal rating (CASOB (Sicklepod) [1]; rate 0.0315 kg/ha): 2.0
CASOB herbicidal rating (CASOB (Sicklepod) [1]; rate 0.0630 kg/ha): 3.0
CHEAL herbicidal rating ([2]; rate 0.0158 kg/ha): 9.0
CHEAL herbicidal rating ([2]; rate 0.0315 kg/ha): 9.0
CHEAL herbicidal rating ([2]; rate 0.0630 kg/ha): 9.0
GALAP herbicidal rating (GALAP (Galium) [3]; rate 0.0158 kg/ha): 2.0
GALAP herbicidal rating (GALAP (Galium) [3]; rate 0.0315 kg/ha): 5.0
GALAP herbicidal rating (GALAP (Galium) [3]; rate 0.0630 kg/ha): 9.0
ECHCG herbicidal rating (ECHCG (Barnyardgrass); rate 0.0158 kg/ha): 3.0
ECHCG herbicidal rating (ECHCG (Barnyardgrass); rate 0.0315 kg/ha): 7.0
ECHCG herbicidal rating (ECHCG (Barnyardgrass); rate 0.0630 kg/ha): 7.0
SETVI herbicidal rating (SETVI (Foxtail, Green); rate 0.0158 kg/ha): 7.0
SETVI herbicidal rating (SETVI (Foxtail, Green); rate 0.0315 kg/ha): 7.0
SETVI herbicidal rating (SETVI (Foxtail, Green); rate 0.0630 kg/ha): 9.0
GLXMAW herbicidal rating ([4]; rate 0.0158 kg/ha): 7.5
GLXMAW herbicidal rating ([4]; rate 0.0315 kg/ha): 8.0
GLXMAW herbicidal rating ([4]; rate 0.0630 kg/ha): 7.5
ORYSAT herbicidal rating (ORYSAT (Rice, Tebonnet); rate 0.0158 kg/ha): 4.0
ORYSAT herbicidal rating (ORYSAT (Rice, Tebonnet); rate 0.0315 kg/ha): 6.0
ORYSAT herbicidal rating (ORYSAT (Rice, Tebonnet); rate 0.0630 kg/ha): 6.0
Preemergence herbicidal rating CASOB (CASOB (Sicklepod) [5]; rate 0.0156 kg/ha): 0.0
Preemergence herbicidal rating CASOB (CASOB (Sicklepod) [5]; rate 0.0313 kg/ha): 0.0
Preemergence herbicidal rating CASOB (CASOB (Sicklepod) [5]; rate 0.0625 kg/ha): 1.0
Preemergence herbicidal rating CASOB (CASOB (Sicklepod) [5]; rate 0.1250 kg/ha): 1.0
Preemergence herbicidal rating CASOB (CASOB (Sicklepod) [5]; rate 0.2500 kg/ha): 2.0
Preemergence herbicidal rating GALAP (GALAP (Galium) [6]; rate 0.0156 kg/ha): 0.0
Preemergence herbicidal rating GALAP (GALAP (Galium) [6]; rate 0.0313 kg/ha): 0.0
Preemergence herbicidal rating GALAP (GALAP (Galium) [6]; rate 0.0625 kg/ha): 0.0
Preemergence herbicidal rating GALAP (GALAP (Galium) [6]; rate 0.1250 kg/ha): 1.0
Preemergence herbicidal rating GALAP (GALAP (Galium) [6]; rate 0.2500 kg/ha): 9.0
Preemergence herbicidal rating ZEAMX (ZEAMX (Corn, Field); rate 0.0156 kg/ha): 0.0
Preemergence herbicidal rating ZEAMX (ZEAMX (Corn, Field); rate 0.0313 kg/ha): 0.0
Preemergence herbicidal rating ZEAMX (ZEAMX (Corn, Field); rate 0.0625 kg/ha): 1.0
Preemergence herbicidal rating ZEAMX (ZEAMX (Corn, Field); rate 0.1250 kg/ha): 2.0
Preemergence herbicidal rating ZEAMX (ZEAMX (Corn, Field); rate 0.2500 kg/ha): 4.0
CYPIR herbicidal effect rating (CYPIR (Rice Flatsedge); 0.0313 kg/ha): 6.0
CYPIR herbicidal effect rating (CYPIR (Rice Flatsedge); 0.0625 kg/ha): 7.0
CYPIR herbicidal effect rating (CYPIR (Rice Flatsedge); 0.1250 kg/ha): 7.0
CYPIR herbicidal effect rating (CYPIR (Rice Flatsedge); 0.2500 kg/ha): 8.0
CYPSE herbicidal effect rating (CYPSE (Flatsedge) [7]; 0.0313 kg/ha): 0.0
CYPSE herbicidal effect rating (CYPSE (Flatsedge) [7]; 0.0625 kg/ha): 0.0
CYPSE herbicidal effect rating (CYPSE (Flatsedge) [7]; 0.1250 kg/ha): 0.0
CYPSE herbicidal effect rating (CYPSE (Flatsedge) [7]; 0.2500 kg/ha): 0.0
SAGPY herbicidal effect rating ([8]; 0.0313 kg/ha): 2.0
SAGPY herbicidal effect rating ([8]; 0.0625 kg/ha): 4.0
SAGPY herbicidal effect rating ([8]; 0.1250 kg/ha): 5.0
SAGPY herbicidal effect rating ([8]; 0.2500 kg/ha): 7.0
Herbicidal rating CYPSE (CYPSE (Flatsedge) [9]; Rate 0.0313 kg/ha): 0.0
Herbicidal rating CYPSE (CYPSE (Flatsedge) [9]; Rate 0.0625 kg/ha): 0.0
Herbicidal rating CYPSE (CYPSE (Flatsedge) [9]; Rate 0.1250 kg/ha): 0.0
Herbicidal rating CYPSE (CYPSE (Flatsedge) [9]; Rate 0.2500 kg/ha): 0.0
